From PMC8769378, “Underlining the Importance of Peripheral Protic Functional Groups to Enhance the Proton Exchange of Gd-Based MRI Contrast Agents” (Inorganic Chemistry, 2021)

Tests used:
[1] = Longitudinal relaxivity r1 and relaxivity vs pH profiles; assay type: physicochemical
Description: The longitudinal relaxivity values (r1) for GdL1 and GdL2, at 20 MHz (0.47 T), 298 K, and pH 7.4, are 4.7 and 5.1 mM^–1 s^–1, respectively. These are typical values of the clinical MRI contrast agents, i.e., low-molecular-weight q = 1 Gd^III chelates that tumble rapidly in solution.[1],[2] In particular, these values compare well with the r1 reported for GdHPDO3A[24] and other HPDO3A-like complexes such as GdHPDO3MA[25] or the series of Gd-hydroxypropylamide-DO3A (HPADO3A, Scheme 1)[7] complexes measured at the same experimental conditions.
At pH >3, the r1 values of GdL2 decrease with the increase of pH from 6.6 mM^–1 s^–1 to reach a plateau of 5.1 mM^–1 s^–1 around pH = 7.5. A further increase of the pH results in the slight increase of r1 reaching a maximum around pH = 9.5. Finally, at pH >9.5, another small decrease in r1 is observed. On the other hand, in the case of GdL1, the r1 values are independent from the pH in the range 4.0–7.5, whereas at pH >8.0, r1 increases up to 5.2 mM^–1 s^–1. The r1 values of GdL1 were measured in the pH range 4–10 in order to avoid the hydrolysis of the methyl ester. […] Then, the overall relaxivity, r1, is given by eq 1: [drawing 1] 1 where r1^is, r1^os, and r1^pr are the relaxivity components due to the inner and outersphere water molecules and the −OH group, respectively. r1^pr can be expressed as follows:[26]−[28] [drawing 2] 2
Proton relaxation measurements (1/T1) and the resulting 1/T1 NMRD profiles were measured on a fast-field cycling (FFC) Stelar SmarTracer relaxometer over a continuum of magnetic field strengths from 0.000 24 to 0.25 T (corresponding to 0.01–10 MHz proton Larmor frequencies). The relaxometer operates under computer control with an absolute uncertainty in 1/T1 of ±1%. […] Furthermore, the real temperature inside the probe head was additionally monitored by a Fluke 52 k/j digital thermometer (Fluke, Zürich, Switzerland). The gadolinium concentration was determined by measuring the bulk magnetic susceptibility shifts of the t-BuOH ^1H NMR signal. Additional data in the 20–120 MHz frequency range were obtained with a high field relaxometer (Stelar) equipped with the HTS-110 3T metrology cryogen-free superconducting magnet. […] The pH-dependent relaxivity measurements of GdL1 and GdL2 complexes were carried out by direct titration of the samples (GdL2, 3.0 < pH < 12.5; GdL1, 4 < pH < 10). The pH was adjusted by the stepwise addition of concentrated NaOH or HCl solution. Calculations were performed with the computer program Micromath Scientist, version 2.0 (Salt Lake City, UT).

[2] = Stability constants of Gd^III complexes (out-of-cell pH potentiometry); assay type: physicochemical
Description: The stability and protonation constants of Ca^2+, Zn^2+, and Cu^2+ complexes formed with the L1 ligand were determined by pH potentiometric titration. The metal-to-ligand concentration ratio was 1:1 (the concentration of the ligand was generally 0.002 M). The protonation constants of the GdL1 and GdL2 complexes were determined using pH potentiometry by titrating the preprepared complexes from pH = 3.0 to pH = 12 for GdL2 and from pH = 4.0 to pH = 12 for GdL1 with 0.2 M NaOH. The stability constants of GdL2 were determined by the “out-of-cell” technique because of the slow formation reaction. The pH range of the complexation equilibria and the time needed to reach the equilibria were determined by relaxometry for the formation of GdL2. […] For the calculation of the stability constants of GdL2, besides the protonation constants of ligands, the stability constants of the diprotonated *Gd(H2L2) out-of-cage complexes (considered as intermediates) were also used as fixed values, which were calculated from the pH potentiometric titration curve of the Gd^3+–L2 system obtained in the pH range 1.7–4.0.
For the pH measurements and titrations, the Metrohm 888 Titrando titration workstation Metrohm-6.0234.110 combined electrode was used. […] For the calculation of [H^+] from the measured pH values, the method proposed by Irving et al. was used as follows.[34] […]

Row | SMILES | longitudinal relaxivity r1 ([1]; 20 MHz (0.47 T), 298 K, pH 7.4) [mM^–1 s^–1] | r1 plateau ([1]; around pH = 7.5, 21 MHz, 298 K, 0.15 M NaCl) [mM^–1 s^–1] | relaxivity increase by acid-catalyzed proton exchange ([1]; pH <6) | r1 at the acidic start of the pH profile ([1]; pH about 3, 21 MHz, 298 K, 0.15 M NaCl) [mM^–1 s^–1] | GdL (log KGdL, stability constant) ([2]; I = 0.15 M NaCl, 298 K) | GdH2L (log K, stability constant of the protonated *Gd(H2L) out-of-cage intermediate) ([2]; KGd(H2L)=[Gd(H2L)]/[Gd3+][H2L], 0.15 M NaCl, 25 °C)
1 | O=C([O-])CN1CCN(CC(=O)[O-])CCN(CC(O)C(=O)O)CCN(CC(=O)[O-])CC1.[Gd+3] (stereo not drawn) [GdL2] | 5.1 | 5.1 | ca. 30% | 6.6 |  | 
2 | O=C(O)CN1CCN(CC(=O)O)CCN(C[C@@H](O)C(=O)O)CCN(CC(=O)O)CC1 [L2, (R)2,2′,2″-(10-(2-Carboxy-2-hydroxyethyl)-1,4,7,10-tetraazacyclododecane-1,4,7-triyl) Triacetic Acid] |  |  |  |  | 19.26 (3) | 6.73 (3)
